Results as given in patent US20230340018A1, “MPRO CYSTEINE PROTEASE INHIBITORS” (ANIXA BIOSCIENCES, INC., priority 2020, published 2023).

What was measured:
[1] = biological target: SARS-CoV-2 main protease Mpro (Severe acute respiratory syndrome coronavirus 2, UniProt P0DTD1); assay: FRET-based Mpro enzyme activity assay; assay type: biochemical; settings: recombinant Mpro, 30 min pre-incubation, 0 - 200 µM; read-out: Mpro enzyme inhibition IC50
in vitro = settings: human

SMILES | IC50 [1] [µM] | CC50 at 72 h (in vitro) [µM]
COc1cccc2[nH]c(C(=O)N[C@H](C(=O)N[C@@H](CN3CCNC3=O)C(=O)C(=O)Nc3ccccc3)C3CCCCC3)cc12 [Compound 25, N-((S)-1-cyclohexyl-2-(((S)-3,4-dioxo-1-(2-oxoimidazolidin-1-yl)-4-(phenylamino)butan-2-yl)amino)-2-oxoethyl)-4-methoxy-1H-indole-2-carboxamide] | ≤ 2 | > 100
CC(C)C[C@H](NC(=O)c1cc2ccccc2[nH]1)C(=O)N[C@@H](CN1CCNC1=O)C(O)C(=O)NCC1CC1 (stereo partly drawn) [Compound 26, N-((2S)-1-(((2S)-4-((cyclopropylmethyl)amino)-3-hydroxy-4-oxo-1-(2-oxoimidazolidin-1-yl)butan-2-yl)amino)-4-methyl-1-oxopentan-2-yl)-1H-indole-2-carboxamide] | ≤ 2 | > 100
COc1cccc2[nH]c(C(=O)N[C@@H](CC3CC3)C(=O)N[C@@H](CN3CCNC3=O)C(=O)C(=O)NCC3CC3)cc12 [Compound 12, N-((S)-3-Cyclopropyl-1-(((S)-4-((cyclopropylmethyl)amino)-3,4-dioxo-1-(2-oxoimidazolidin-1-yl)butan-2-yl)amino)-1-oxopropan-2-yl)-4-methoxy-1H-indole-2-carboxamide] | ≤ 2 | > 100
CC(C)C[C@H](NC(=O)OC(C)(C)C)C(=O)N[C@@H](Cc1ccc[nH]c1=O)C(=O)C(=O)NCc1ccccc1 [Compound 27, tert-butyl ((S)-1-(((S)-4-(benzylamino)-3,4-dioxo-1-(2-oxo-1,2-dihydropyridin-3-yl)butan-2-yl)amino)-4-methyl-1-oxopentan-2-yl)carbamate] | 2 to 20 | > 100
CC(C)C[C@H](NC(=O)c1cc2ccccc2[nH]1)C(=O)N[C@@H](CN1CCNC1=O)C(=O)C(=O)NCC1CC1 [Compound 24, N-((S)-1-(((S)-4-((cyclopropylmethyl)amino)-3,4-dioxo-1-(2-oxoimidazolidin-1-yl)butan-2-yl)amino)-4-methyl-1-oxopentan-2-yl)-1H-indole-2-carboxamide] | 2 to 20 | > 100
CC(C)C[C@H](NC(=O)c1nc2ccccc2[nH]1)C(=O)N[C@@H](Cc1ccc[nH]c1=O)C(=O)C(=O)NCc1ccccc1 [Compound 23, N-((S)-1-(((S)-4-(benzylamino)-3,4-dioxo-1-(2-oxo-1,2-dihydropyridin-3-yl)butan-2-yl)amino)-4-methyl-1-oxopentan-2-yl)-1H-benzo[d]imidazole-2-carboxamide] | ≤ 2 | > 100
COc1cccc2[nH]c(C(=O)N[C@@H](CC(C)C)C(=O)N[C@@H](CN3CCNC3=O)C(=O)C(=O)NCC3CC3)cc12 [Compound 10, N-((S)-1-(((S)-4-((Cyclopropylmethyl)Amino)-3,4-Dioxo-1-(2-Oxoimidazolidin-1-yl)Butan-2-yl)Amino)-4-Methyl-1-Oxopentan-2-yl)-4-Methoxy-1H-Indole-2-Carboxamide] | ≤ 2 | > 100
CC(C)C[C@H](NC(=O)c1cc2ccccc2[nH]1)C(=O)N[C@@H](Cc1ccc[nH]c1=O)C(=O)C(=O)NCc1ccccc1 [Compound 22, N-((S)-1-(((S)-4-(Benzylamino)-3,4-Dioxo-1-(2-Oxo-1,2-Dihydropyridin-3-yl)Butan-2-yl)Amino)-4-Methyl-1-Oxopentan-2-yl)-1H-Indole-2-Carboxamide] | ≤ 2 | > 100
